US8541210B2, “Producing eicosapentaenoic acid (EPA) from biodiesel-derived crude glycerol” (Virginia Tech Intellectual Properties, Inc., priority 2008, dated 2013)

Experiments:
[1] = test system: Pythium irregulare (ATCC 10951); test: Growth and EPA production of P. irregulare with glucose, pure glycerol or crude glycerol as carbon source; format: cell-based; settings: FIG. 1A; substrate around 20 g/L
[2] = test system: P. irregulare; test: Effects of methanol on fungal growth; format: cell-based, Pythium irregulare; settings: 20 g/L pure glycerol spiked with 2, 4, and 8 g/L methanol; filter-sterilised; spores inoculated
Excerpt: The crude glycerol used in this work contained ˜12% (w/w) methanol. […] To study the “true” effects of methanol on fungal growth and EPA production, we prepared a medium containing 20 g/L pure glycerol spiked with 2, 4, and 8 g/L methanol. The medium was then passed through a 0.2 μm filter before fungal spores were inoculated. […] The result clearly indicated the negative effects of methanol on growth and EPA production of P. irregulare.

SMILES	cell growth [1]	growth in methanol-containing medium [2]
OCC(O)CO [Pure glycerol, glycerol]	supported cell growth	–
CO [methanol]	–	did not observe any growth
